# Laboratory results as given in patent publication US20210188856A1, “CRYSTAL FORM OF HYDROCHLORIDE OF PYRAZOLOHETEROARYL DERIVATIVE AND PREPARATION METHOD” (JIANGSU HENGRUI MEDICINE CO., LTD., priority 2018, published 2021).
# Where two headings read alike, the source gives them in different places.
# Legend:
# [1] = Solubility in PBS 7.4 and FaSSIF solutions; assay type: physicochemical; conditions: thermodynamic from solid
# Excerpt: The amorphous samples of the compound represented by formula (I) and the crystal form I samples of the dihydrochloride salt of the compound represented by formula (I) obtained in the present disclosure were further evaluated for solubility in PBS 7.4 and FaSSIF solutions.
# [2] = Log D; assay type: physicochemical
# [3] = target: T1, CYP3A4 (Homo sapiens, UniProt P08684); assay: Inhibition of midazolam metabolite site of CYP3A4 in human liver microsome; assay type: in vitro ADME
# T1 construct: CYP3A4 in human liver microsome; tissue Corning Gentest; host or cells: human liver microsomes
# Method: The effect of the compound represented by formula (I) on the enzyme activity of midazolam metabolite site of CYP3A4 in human liver microsome was determined by the following experimental method:
# (§1) 100 mM PBS buffer was formulated, which was then used to formulate 2.5 mg/mL microsome solution and 5 mM NADPH solution. The 5× concentration of the compound working solution was diluted with PBS gradient (150, 50, 15, 5, 1.5, 0.15, 0.015, 0 μM). The 5× concentration of ketoconazole working solution was diluted with PBS gradient (150, 50, 15, 5, 1.5, 0.15, 0.015, 0 μM). […] working solution was diluted with PBS to a concentration of 50 μM.
# 20 μL of the 2.5 mg/mL microsome solution, […], 20 μL of MgCl2 solution and 20 μL of the compound working solution (150, 50, 15, 5, 1.5, 0.15, 0.015, 0 μM, different reaction systems for each concentration) were taken respectively and mixed well. For the positive control group, the compound was replaced with the same concentration of ketoconazole. The mixture together with the 5 mM NADPH solution was pre-incubated at 37° C. for 5 minutes. After 5 minutes, 20 μL of NADPH was added to each well, the reaction was started and incubated for 30 minutes. […] 80 μL of the supernatant was taken and analyzed by LC-MS/MS.
# The data was calculated by Graphpad Prism to obtain the IC50 value of the compound on the midazolam metabolite site of CYP3A4.
# [4] = target: T2, CYP2D6 (Homo sapiens, UniProt P10635); assay: Inhibition of CYP2D6 in human liver microsome; assay type: in vitro ADME
# T2 construct: CYP2D6 in human liver microsome; tissue Corning Gentest; host or cells: human liver microsomes
# Method: The effect of the compound represented by formula (I) on the enzyme activity of CYP2D6 in human liver microsome was determined by the following experimental method:
# as §1, with “quinidine” for “ketoconazole”
# (§2) 20 μL of the 2.5 mg/mL microsome solution, 20 μL of the 50 μM […] working solution, 20 μL of MgCl2 solution and 20 μL of the compound working solution (150, 50, 15, 5, 1.5, 0.15, 0.015, 0 μM, different reaction systems for each concentration) were taken respectively and mixed well. For the positive control group, the compound was replaced with the same concentration of quinidine. The mixture together with the 5 mM NADPH solution was pre-incubated at 37° C. for 5 minutes. After 5 minutes, 20 μL of NADPH was added to each well, the reaction was started and incubated for 30 minutes. […] 80 μL of the supernatant was taken and analyzed by LC-MS/MS.
# The data were calculated by Graphpad Prism to obtain the IC50 value of the compound on the metabolite site of CYP2D6.
# [5] = target: T1, CYP3A4; assay: Inhibition of testosterone metabolite site of CYP3A4 in human liver microsome; assay type: in vitro ADME
# Method: The effect of the compound represented by formula (I) on the enzyme activity of testosterone metabolite site of CYP3A4 in human liver microsome was determined by the following experimental method:
# as §1
# as §2, with “ketoconazole.” for “quinidine.”, “minutes.” for “minutes. After 5 minutes, 20 μL of NADPH was added to each well, the reaction was started and incubated for 30 minutes.”
# The data was calculated by Graphpad Prism to obtain the IC50 value of the compound on the testosterone metabolite site of CYP3A4.
# T1 sequence (P08684 whole entry): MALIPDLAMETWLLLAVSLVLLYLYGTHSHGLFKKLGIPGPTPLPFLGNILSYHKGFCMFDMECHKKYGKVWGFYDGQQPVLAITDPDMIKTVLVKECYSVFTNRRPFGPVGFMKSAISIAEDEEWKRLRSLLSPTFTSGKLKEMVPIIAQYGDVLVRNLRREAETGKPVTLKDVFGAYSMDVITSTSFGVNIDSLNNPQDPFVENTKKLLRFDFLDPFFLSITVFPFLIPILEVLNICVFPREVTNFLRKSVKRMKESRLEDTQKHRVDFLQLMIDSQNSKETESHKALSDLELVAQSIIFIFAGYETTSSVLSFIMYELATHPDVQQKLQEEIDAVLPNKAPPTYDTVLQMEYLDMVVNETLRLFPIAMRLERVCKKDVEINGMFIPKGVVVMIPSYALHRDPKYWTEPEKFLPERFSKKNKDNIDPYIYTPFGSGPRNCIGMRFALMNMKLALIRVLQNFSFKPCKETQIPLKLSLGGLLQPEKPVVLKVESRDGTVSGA
# T2 sequence (P10635 whole entry): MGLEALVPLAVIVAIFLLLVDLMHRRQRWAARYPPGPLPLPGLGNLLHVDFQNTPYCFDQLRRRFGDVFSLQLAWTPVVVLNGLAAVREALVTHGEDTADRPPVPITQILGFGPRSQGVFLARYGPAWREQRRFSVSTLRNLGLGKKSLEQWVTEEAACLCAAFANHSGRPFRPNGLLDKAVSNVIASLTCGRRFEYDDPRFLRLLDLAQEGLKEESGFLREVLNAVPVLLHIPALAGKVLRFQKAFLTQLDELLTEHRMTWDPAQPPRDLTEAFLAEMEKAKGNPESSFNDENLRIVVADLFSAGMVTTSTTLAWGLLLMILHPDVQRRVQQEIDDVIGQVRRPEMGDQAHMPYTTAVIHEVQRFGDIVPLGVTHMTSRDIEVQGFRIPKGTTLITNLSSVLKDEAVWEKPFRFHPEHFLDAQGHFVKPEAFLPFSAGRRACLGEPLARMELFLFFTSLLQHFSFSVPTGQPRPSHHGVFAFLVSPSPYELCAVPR
compound,measurement,setting,value
"CCCCOc1nc(N)c2cnn(Cc3ccc(CN4CCCC4)cc3)c2n1 [compound represented by formula (I), 6-Butoxy-1-(4-(pyrrolidin-1-ylmethyl)benzyl)-1H-pyrazolo[3,4-d]pyrimidin-4-amine]",solubility,"[1]; FaSSIF solution, fassif, read-out: FasSIF Solubility",1090 µg/mL
same,solubility,"[1]; PBS 7.4, pH 7.4, aqueous buffer, read-out: PBS 7.4 Solubility",30 µg/mL
same,Log D,[2],1.21
same,inhibitory effect on midazolam metabolic site of CYP3A4 (in words),[3],no inhibitory effect
same,IC50,[3]; midazolam probe,14 µM
same,inhibitory effect against CYP2D6 (in words),[4],no inhibitory effect
same,IC50,[4]; dextromethorphan probe,> 30 µM
same,inhibitory effect on testosterone metabolite site of CYP3A4 (in words),[5],weak inhibitory effect
same,IC50,[5]; testosterone probe,4 µM
